Results published in patent US6518302B1, “Remedies” (Takara Shuzo Co., Ltd., priority 1999, dated 2003).

How the values were obtained:
[1] = test system: heme oxygenase 1 protein in RAW264.7 cells; experiment: Heme oxygenase 1 induction (Western blot); format: cell-based; design: key: − represents no band observed; increase in the intensity of the band is represented as follows: +−<+<++; increase in the intensity of the band is represented as follows: +−<+<++; increase in the intensity of the band is represented as follows: +−<+<++; conditions: 12 hours
Description: RAW264.7 cells (ATCC TIB 71) were suspended in Dulbecco's modified Eagle's medium (Bio Whittaker, 12-604F) containing 10% fetal calf serum (Gibco) at a concentration of 3×10^5 cells/ml. 5 ml of the suspension was added to each well of a 6-well microtiter plate and the plate was incubated at 37° C. overnight in the presence of 5% CO2. 50 μl of a solution containing the compound (11) or the compound (14) at a concentration of 10 mM or 5 mM in water, 5 μl of a solution containing the compound (7) at a concentration of 50 mM or 25 mM in dimethyl sulfoxide, or 5 μl of a solution containing the compound (17) at a concentration of 100 mM or 50 mM in dimethyl sulfoxide was added to the well. The plate was incubated for 12 hours. A positive control for heme oxygenase 1 induction in which 5 μl of 3 mM solution of 15-deoxy-Δ12,14 prostaglandin J2 (Cayman Chemical, 18570) in dimethyl sulfoxide was added, and a negative control in which water was added were provided. The cells were recovered by detaching the cells from the plate using a scraper and suspended in 0.1 M tris-HCl buffer (pH 7.5) containing 0.05 mM pepstatin A (Sigma, P5318), 0.2 mM leupeptin (Sigma, L2884), 1 mM phenylmethylsulfonyl fluoride (Nacalai Tesque, 273-27), 10 mM ethylenediaminetetraacetic acid disodium salt and 0.1% Triton X-100. A supernatant obtained by centrifuging the suspension after freezing and thawing was used as a protein fraction. The content of protein in the protein fraction was determined using Micro BCA Protein Assay Reagent (a product of Pierce sold by Takara Shuzo, P7411). A sample from the protein fraction prepared as described above was mixed with an equal volume of 0.125 M tris-hydrochloride buffer (pH 6.8) containing 4% sodium lauryl sulfate (SDS), 2% 2-mercaptoethanol, 0.001% Bromophenol Blue and 20% glycerol. After treatment at 100° C. for 5 minutes, a portion corresponding to 10 μg of protein was loaded on 12.5% SDS-polyacrylamide gel and electrophoresed at a constant current of 20 mA. After electrophoresis, the gel was transferred to a PVDF membrane (Millipore, IPVH000 10) at a constant voltage of 15 V for 25 minutes using a blotting buffer (containing 48 mM tris, 39 mM glycine, 20% methanol and 0.0375% SDS) and Trans-Blot SD Cell Semi-Dry blotting apparatus (Bio-Rad) according to the attached protocol. After transferring, the PVDF membrane was blocked in a solution of Block Ace (Dainippon Pharmaceutical, UK-B25) at 4 C overnight. After blocking, the membrane washed three times in phosphate buffered saline containing 0.1% Tween 20 for 15 minutes with gentle shaking. The membrane was reacted in phosphate buffered saline containing 10% Block Ace, 0.1% Tween 20 and 200 ng/ml of anti-heme oxygenase 1 antibody (N-19; Santa Cruz, sc-7696) at room temperature for 1 hour with gentle shaking, and then washed three times in phosphate buffered saline containing 0.1% Tween 20 for 15 minutes with gentle shaking. The membrane was reacted in phosphate buffered saline containing 10% Block Ace, 0.1% Tween 20 and 0.1% peroxidase-labeled rabbit anti-goat IgG (H+L) antibody (Zymed, 61-1620) at room temperature for 1 hour with gentle shaking, and then washed five times in phosphate buffered saline containing 0.1% Tween 20 for 15 minutes with gentle shaking. The PVDF membrane was stained using Western Blot Chemiluminescence Reagent Plus (a product of NEN Life Science Products sold by Daiichi Pure Chemicals, NEL103) according to the attached protocol and exposed to an X-ray film (Kodak, CAT165 1454). After exposure, the film was developed using FPM800 (Fuji Film).
The intensity of the band depended on the concentration of the sample. In the table, the intensity of the band for heme oxygenase 1 protein is expressed by the mark +. Specifically, − represents no band observed, and increase in the intensity of the band is represented as follows: +−<+<++.

[2] = test system: Human promyelocytic leukemia HL-60 cells; experiment: Antiproliferation activity against HL-60 cells (MTT method); format: cell-based; conditions: 48 hour incubation; for IC50: Homo sapiens, HL-60 cells, read-out: IC50, concentration at which 50% of the proliferation is inhibited
Description: Human promyelocytic leukemia HL-60 cells (ATCC CCL-240) were cultured at 37° C. in RPMI 1640 medium (Gibco) containing 10% of fetal calf serum (JRH Bioscience) which had been treated at 56° C. for 30 minutes, and suspended in the same medium at a concentration of 5000 cells/90 μl. Each 90 μl portion of the suspension was distributed into each well of a 96-well plate (Falcon). To the suspension in each well was added 10 μl of one the following samples, and incubated at 37° C. in the presence of 5% CO2. The samples were 2-, 4-, 8-, 16-, 32-, 64- or 128-dilutions of filter-sterilized 200 mM aqueous solution of the compound (2) obtained in Example 1, 50 mM aqueous solution of the compound (7), 50 mM aqueous solution of the compound (9), 100 mM aqueous solution of the compound (11), 100 mM aqueous solution of the compound (14), 20 mM aqueous solution of the compound (17), 12.5 mM aqueous solution of the compound (19) or 12.5 mM aqueous solution of the compound (21) with sterile water, as well as water. After 48 hour from the initiation of the incubation, the numbers of viable cells calculated based on the absorbance measured according to the MTT method as described in “Apoptosis Jikken Protocol” (Syuzyun-sha, Seiichi Tanuma, ed., pp. 156 (1994)) were compared each other.

Compound | Intensity of band for heme oxygenase 1 protein ([1]; final concentration of 25 μM) | Intensity of band for heme oxygenase 1 protein ([1]; final concentration of 50 μM) | antiproliferation activity against HL-60 cells [2] | IC50 [2] [µM] | Intensity of band for heme oxygenase 1 protein ([1]; final concentration of 100 μM)
O=C[C@H](O)[C@H]1OC[C@@H](O)[C@@H]1OC(=O)c1ccccc1 [Compound (7), 4-O-benzoyl-3,6-anhydro-D-galactose] | + | + | exhibited antiproliferation activities | 104 | 
OCC1OC(OC2C(CO)OC(OC3C(CO)OC(OC4C(O)COC4C(O)C(O)O)C(O)C3O)C(O)C2O)C(O)C(O)C1O [Compound (14), 4-O-β-maltotoriosyl-3,6-anhydro-D-galactose] |  | + | exhibited antiproliferation activities | 113 | + +
O=C[C@H](O)[C@H]1OC[C@@H](O)[C@@H]1OCc1ccccc1 [Compound (17), 4-O-benzyl-3,6-anhydro-D-galactose] |  | + | exhibited antiproliferation activities | 205 | + +
